From publication PMC3853373 (Archives of biochemistry and biophysics, 2013)
“And” between values parts separate entries of the source, which are not always exact repeats. Identical values can stand only once. Like-named read-outs stand apart in the source and are kept apart here.

How the values were obtained:
human PNMT (hPNMT) [1] = biological target: T1, human PNMT (hPNMT) (Homo sapiens, UniProt P11086); assay: Determination of inhibition constants and inhibition patterns for hPNMT; format: biochemical; conditions: pH 8.0, 30 °C; for Ki: read-out: Kis
T1 sequence (P11086 1-282): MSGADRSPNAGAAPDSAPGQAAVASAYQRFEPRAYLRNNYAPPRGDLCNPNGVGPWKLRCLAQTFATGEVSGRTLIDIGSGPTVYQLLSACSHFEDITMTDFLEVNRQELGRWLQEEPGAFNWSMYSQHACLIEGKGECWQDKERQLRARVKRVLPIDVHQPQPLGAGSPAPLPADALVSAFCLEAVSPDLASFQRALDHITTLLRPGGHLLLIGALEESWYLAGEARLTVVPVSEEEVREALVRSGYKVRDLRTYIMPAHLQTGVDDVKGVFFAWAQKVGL

human PNMT (hPNMT) [2] = biological target: T1, human PNMT (hPNMT); assay: pH dependence of hPNMT kinetic parameters and of Ki for SK&F 29661; conditions: pH 6-10, 30 °C; fit to eq 6
human PNMT (hPNMT) [3] = biological target: T1, human PNMT (hPNMT); assay: Isothermal titration calorimetry of ligand binding to hPNMT; conditions: for binding to free hPNMT: no AdoMet or AdoHcy present
human PNMT (hPNMT) [4] = biological target: T1, human PNMT (hPNMT); assay: hPNMT initial velocity studies; format: biochemical
human PNMT (hPNMT) [5] = biological target: T1, human PNMT (hPNMT); conditions: pH 8.0, 30 °C; ref [30]; cited from earlier work
[6] = varied substrate AdoMet, fixed PEA 100 μM
[7] = varied substrate PEA, fixed AdoMet 5 μM

Row | Structure (SMILES) | binding to free hPNMT (human PNMT (hPNMT) [3]; ITC) | Kii (human PNMT (hPNMT) [1]; [7]) [µM] | pKa2 from LogV/K pH profile (human PNMT (hPNMT) [2]) | pKa3 from LogV/K pH profile (human PNMT (hPNMT) [2]) | Kd (human PNMT (hPNMT) [3]) [µM] | other results
1 | Nc1ncnc2c1ncn2[C@@H]1O[C@H](CSCC[C@H](N)C(=O)O)[C@@H](O)[C@H]1O [AdoHcy, S-adenosyl-L-homocysteine] | – | 1.0 ± 0.02 | – | – | – | Ki (human PNMT (hPNMT) [1]; [6]): 0.8 ± 0.04 µM; Ki (human PNMT (hPNMT) [1]; [7]): 2.5 ± 0.28 µM
2 | C[S+](CC[C@H](N)C(=O)[O-])C[C@H]1O[C@@H](n2cnc3c(N)ncnc32)[C@H](O)[C@@H]1O (stereo partly drawn) [AdoMet, S-adenosyl-L-methionine] | – | – | 7.25 | 9.15 ± 0.12 | 4.6 ± 0.7 | –
3 | CNC[C@H](O)c1ccc(O)c(O)c1 [Epinephrine, epinephrine] | – | 51 ± 1.0 | – | – | – | Kii (human PNMT (hPNMT) [1]; [6]): 22 ± 0.8 µM; preference for binding in presence of AdoHcy over AdoMet (human PNMT (hPNMT) [3]; ITC): 5 fold
4 | NCC(O)c1ccccc1 (stereo not drawn) [PEA, phenylethanolamine] | did not bind | – | 8.66 and 8.66 ± 0.03 | 9.26 and 9.26 ± 0.03 | 60 ± 2 | kcat (human PNMT (hPNMT) [5]): 0.0473 ± 0.00167 s⁻¹; kcat/Ka (human PNMT (hPNMT) [5]): (2.8 ± 0.2) × 10^4 M^−1 min^−1

Second part, led by results:

Row | binding to free hPNMT (human PNMT (hPNMT) [3]; ITC) | Structure (SMILES) | Kii (human PNMT (hPNMT) [1]; [7]) [µM] | pKa2 from LogV/K pH profile (human PNMT (hPNMT) [2]) | pKa3 from LogV/K pH profile (human PNMT (hPNMT) [2]) | Kd (human PNMT (hPNMT) [3]) [µM] | other results
5 | did not bind | NC[C@H](O)c1ccc(O)c(O)c1 [NE, norepinephrine] | – | – | – | 7.2 ± 0.2 | –
6 | did not bind | NCC(O)c1ccc(O)cc1 (stereo not drawn) [Octopamine, octopamine] | – | – | – | 3.3 ± 0.1 | Kia (human PNMT (hPNMT) [4]; dissociation constant from eq 1, phosphate buffer pH 8.0, 30 °C): 2.1 ± 0.2 µM; Km lower than that of PEA (human PNMT (hPNMT) [4]; ratio of Km values against PEA): 20 fold
